The source of these data is US6821980B1, “Substituted 5-benzyl-2,4-diaminopyrimidines” (Basilea Pharmaceutica AG, priority 1999, dated 2004).

pIC50: −log10 of the molar value. Values after ≈ are worked out from the molar mass of the structure shown. Where two headings read alike, the source gives them in different places.

Test [1] has as its system Streptococcus pneumoniae 1/1. Nature of the test: MIC against Streptococcus pneumoniae 1/1. The class given is cell-based.
For test [2], the target named is purified DHFR of strain 157/4696 of Staphylococcus aureus (Staphylococcus aureus, UniProt P13955). The experiment in a line: biochemical.
purified DHFR of strain 157/4696 of Staphylococcus aureus, sequence (P13955 whole entry): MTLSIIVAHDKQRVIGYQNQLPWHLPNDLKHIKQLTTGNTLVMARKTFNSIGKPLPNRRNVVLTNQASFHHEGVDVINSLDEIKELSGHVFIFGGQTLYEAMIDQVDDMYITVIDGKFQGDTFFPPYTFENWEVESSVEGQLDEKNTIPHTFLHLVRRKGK
Test [3] deals with Staphylococcus aureus 101. The experiment in a line: MIC against Staphylococcus aureus 101. The class given is cell-based. Particulars: read-out: MIC Sa101.
For test [4], the target named is T1, purified DHFR of strain Sp1/1 of Streptococcus pneumoniae (Streptococcus pneumoniae serotype 4, UniProt Q54801).
T1 sequence (Q54801 1-168 I100L): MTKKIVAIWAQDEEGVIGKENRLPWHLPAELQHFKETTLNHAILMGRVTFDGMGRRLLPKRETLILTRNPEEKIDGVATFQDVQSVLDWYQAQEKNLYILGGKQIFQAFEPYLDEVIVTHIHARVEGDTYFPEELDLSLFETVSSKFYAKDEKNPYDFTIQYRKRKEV
The class given is biochemical. The conditions noted are these: IC50 against purified DHFR of strain Sp1/1.

Setting [5] is: Table 2, Streptococcus pneumoniae 1/1, trimethoprim- and penicillin-resistant, serotype 6, clinical isolate, read-out: MIC Sp1/1.
Where [6] appears, read: Table 2, Staphylococcus aureus 101, MRSA- and trimethoprim-resistant, clinical isolate.

Usually pIC50 stands for −log10 of the IC50, conventionally taken in molar units.

For `CCOc1cc(Cc2cnc(N)nc2N)cc(OCC)c1-c1ccc2c(c1)NCCO2` [Example 02-h, 5-[4-(3,4-Dihydro-2H-benzo[1.4]oxazin-6-yl)-3,5-diethoxy-benzyl]-pyrimidine-2,4-diamine], the MIC worked out at 4 µg/mL (≈ 9.49 µM) in test [1] (setting [5]) and 8 µg/mL (≈ 19 µM) in test [3] (setting [6]). Besides, the pIC50 in test [2] was 5.92; in test [4] (Table 2) it was 7.42.
For the molecule `CCOc1cc(Cc2cnc(N)nc2N)cc(OCC)c1-c1ccc(S(C)(=O)=O)cc1` [Example 02-i, 5-(2,6-Diethoxy-4′-methanesulphonyl-biphenyl-4-ylmethyl)-pyrimidine-2,4-diamine], the MIC in test [1] (setting [5]) is 2 µg/mL (≈ 4.52 µM); in test [3] (setting [6]), 8 µg/mL (≈ 18.1 µM). In addition, the pIC50 is 5.80 in test [2] and 7.00 in test [4] (Table 2).
Take `CCOc1cc(Cc2cnc(N)nc2N)cc(OCC)c1-c1ccc(OC)c(OC)c1` [Example 02-l, 5-(2,6-Diethoxy-3′,4′-dimethoxy-biphenyl-4-ylmethy)-pyrimidine-2,4-diamine]: the results for the MIC in test [1] (setting [5]) and in test [3] (setting [6]) were 4 µg/mL (≈ 9.42 µM) and 8 µg/mL (≈ 18.8 µM), respectively. The negative logarithm of the IC50 (pIC50) in test [2] was 5.10; in test [4] (Table 2), 6.80.
Consider `CCOc1cc(Cc2cnc(N)nc2N)cc(OCC)c1-c1cccs1` [Example 02-m, 5-(3,5-Diethoxy-4-thiophen-2-yl-benzyl)-pyrimidine-2,4-diamine], for which the MIC was 4 µg/mL (≈ 10.8 µM) in test [1] (setting [5]) and 8 µg/mL (≈ 21.6 µM) in test [3] (setting [6]). In addition, the results for the pIC50 in test [2] and in test [4] (Table 2) were 6.15 and 7.24, respectively.
For `CCOc1cc(Cc2cnc(N)nc2N)cc(OCC)c1-c1ccc(OC)c(C)c1` [Example 02-n, 5-(2,6-Diethoxy-4′-methoxy-3′-metyl-biphenyl-4-ylmethyl)-pyrimidine-2,4-diamine] the same measures were 4 µg/mL (≈ 9.79 µM), 8 µg/mL (≈ 19.6 µM), 5.85 and 6.96.
Take `CCOc1cc(Cc2cnc(N)nc2N)cc(OCC)c1-c1ccco1` [Example 02-o, 5-(3,5-Diethoxy-4-furan-2-yl-benzyl)-pyrimidine-2,4-diamine]: the MIC in test [1] (setting [5]) and in test [3] (setting [6]) was 4 µg/mL (≈ 11.3 µM) throughout. Further, the negative logarithm of the IC50 (pIC50) in test [2] was 5.66; in test [4] (Table 2) it was 7.00.
For `CCOc1cc(Cc2cnc(N)nc2N)cc(OCC)c1-c1cccnc1` [Example 02-p, 5-(3,5-Diethoxy-4-pyridin-3-yl-benzyl)-pyrimidine-2,4-diamine], the MIC is 4 µg/mL (≈ 10.9 µM) in test [1] (setting [5]) and 8 µg/mL (≈ 21.9 µM) in test [3] (setting [6]). Besides, the negative-log IC50 (pIC50) was 5.66 in test [2] and 7.00 in test [4] (Table 2).
For `CCOc1cc(Cc2cnc(N)nc2N)cc(OCC)c1-c1ccc(C)cc1` [Example 02-q, 5-(2,6-Diethoxy-4′-methyl-biphenyl-4-ylmethyl)-pyrimidine-2,4-diamine] the same measures were 8 µg/mL (≈ 21.1 µM), 4 µg/mL (≈ 10.6 µM), 5.96 and 7.10.
Taken in the same sequence, the figures for `CCOc1cc(Cc2cnc(N)nc2N)cc(OCC)c1-c1ccc2c(c1)OCO2` [Example 02-r, 5-(4-Benzo[1,3]dioxol-5-yl-3,5-diethoxy-benzyl)-pyrimidine-2,4-diamine] were 4 µg/mL (≈ 9.79 µM), 4 µg/mL (≈ 9.79 µM), 5.60 and 7.15.
Take `CCOc1cc(Cc2cnc(N)nc2N)cc(OCC)c1-c1ccc(O)c(C)c1` [Example 02-s, 4′-(2,4-Diamino-pyrimidin-5-ylmethyl)-2′,6′-diethoxy-3-methyl-biphenyl-4-ol]: the MIC in test [1] (setting [5]) worked out at 8 µg/mL (≈ 20.3 µM); in test [3] (setting [6]), 4 µg/mL (≈ 10.1 µM). For the same molecule, the pIC50 was 5.66 in test [2] and 7.08 in test [4] (Table 2).
In the case of `CCOc1cc(Cc2cnc(N)nc2N)cc(OCC)c1-c1ccc(O)cc1` [Example 02-t, 4′-(2,4-Diamino-pyrimidin-5-ylmethyl)-2′,6′-diethoxy-biphenyl-4-ol], the MIC in test [1] (Streptococcus pneumoniae, 1/1, read-out: MIC Sp1/1) was 4 µg/mL (≈ 10.5 µM); in test [3] (Staphylococcus aureus, MRSA) it was 8 µg/mL (≈ 21 µM). Moreover, the pIC50 was 5.96 in test [2] and 7.09 in test [4] (Table 2).
As to `CCOc1cc(Cc2cnc(N)nc2N)cc(OCC)c1-c1cccc(C#N)c1` [Example 02-u, 4′-(2,4-Diamino-pyrimidin-5-ylmethyl)-2′,6′-diethoxy-biphenyl-3-carbonitrile], the results for the MIC in test [1] (setting [5]) and in test [3] (setting [6]) were 4 µg/mL (≈ 10.3 µM) and 8 µg/mL (≈ 20.5 µM), respectively. Moreover, the results for the negative logarithm of the IC50 (pIC50) in test [2] and in test [4] (Table 2) were 5.40 and 6.74, respectively.
On to `CCOc1cc(Cc2cnc(N)nc2N)cc(OCC)c1-c1ccc(N(C)C)cc1` [Example 02-v, 5-(4′-Dimethylamino-2,6-diethoxy-biphenyl-4-ylmethyl)-pyrimidine-2,4-diamine], for which the MIC in test [1] (setting [5]) was 4 µg/mL (≈ 9.82 µM); in test [3] (setting [6]) it was 8 µg/mL (≈ 19.6 µM). The negative logarithm of the IC50 (pIC50) in test [2] was 5.00; in test [4] (Table 2), 6.96.
Turning to `CCOc1cc(Cc2cnc(N)nc2N)cc(OCC)c1-c1ccc(CN2CCOCC2)cc1` [Example 02-w, 5-(2,6-Diethoxy-4′-morpholine-4-ylmethyl-biphenyl-4-ylmethyl)-pyrimidine-2,4-diamine], the MIC in test [1] (setting [5]) is 4 µg/mL (≈ 8.63 µM); in test [3] (setting [6]) it was 8 µg/mL (≈ 17.3 µM). The pIC50 in test [2] is 5.66; in test [4] (Table 2), 6.55.
On to `CCOc1cc(Cc2cnc(N)nc2N)cc(OCC)c1-c1ccc2c(c1)OCCO2` [Example 02-x, 5-[4-(2,3-Dihydro-benzo[1,4]dioxin-6-yl)-3,5-diethoxy-benzyl]-pyrimidine-2,4-diamine], for which the results for the MIC in test [1] (setting [5]) and in test [3] (setting [6]) were 2 µg/mL (≈ 4.73 µM) and 8 µg/mL (≈ 18.9 µM), respectively. The values for the negative-log IC50 (pIC50) in test [2] and in test [4] (Table 2) were 5.63 and 7.12, respectively.
Turning to `CCOc1cc(Cc2cnc(N)nc2N)cc(OCC)c1-c1cccc(N(C)C)c1` [Example 02-y, 5-(3′-Dimethylamino-2,6-diethoxy-biphenyl-4-ylmethyl)-pyrimidine-2,4-diamine], the MIC was 4 µg/mL (≈ 9.82 µM) in test [1] (setting [5]) and 8 µg/mL (≈ 19.6 µM) in test [3] (setting [6]). Also, the negative-log IC50 (pIC50) was 6.10 in test [2] and 6.82 in test [4] (Table 2).
As to `CCOc1cc(Cc2cnc(N)nc2N)cc(OCC)c1-c1cccc([N+](=O)[O-])c1` [Example 02-z, 5-(2,6-Diethoxy-3′-nitro-biphenyl-4-ylmethyl)-pyrimidine-2,4-diamine], the MIC in test [1] (setting [5]) and in test [3] (setting [6]) was 8 µg/mL (≈ 19.5 µM) each time. The pIC50 in test [2] is 5.80; in test [4] (Table 2) it was 7.22.
For `CCOc1cc(Cc2cnc(N)nc2N)cc(OCC)c1-c1cccc(N)c1` [Example 2a, 5-(3′-Amino-2,6-diethoxy-biphenyl-4-ylmethyl)-pyrimidine-2,4-diamine], the MIC in test [1] (Table 1, Streptococcus pneumoniae 1/1, trimethoprim- and penicillin-resistant, serotype 6, clinical isolate, read-out: MIC Sp1/1) was found to be 4 µg/mL (≈ 10.5 µM); in test [3] (Table 1, Staphylococcus aureus 101, MRSA- and trimethoprim-resistant, clinical isolate), 8 µg/mL (≈ 21.1 µM). In addition, the negative logarithm of the IC50 (pIC50) is 6.12 in test [2] and 7.52 in test [4] (Table 1).
Regarding `CCOc1cc(Cc2cnc(N)nc2N)cc(OCC)c1-c1ccc(COCC(=O)N2CCOCC2)s1` [Example 03-a, 2-[5-[4-(2,4-Diamino-pyrimidin-5-ylmethyl)-2,6-diethoxy-phenyl]-thiophen-2-ylmethoxyl]-1-morpholin-4-yl-ethanone], the MIC in test [1] (setting [5]) came out at 2 µg/mL (≈ 3.79 µM); in test [3] (setting [6]), 8 µg/mL (≈ 15.2 µM). Besides, the figures for the negative-log IC50 (pIC50) in test [2] and in test [4] (Table 2) were 5.74 and 7.51, respectively.
For the molecule `CCOc1cc(Cc2cnc(N)nc2N)cc(OCC)c1-c1ccc(COCC(=O)N2CCSCC2)s1` [Example 03-b, 2-[5-[4-(2,4-Diamino-pyrimidin-5-ylmethyl)-2,6-diethoxy-phenyl]-thiophen-2-ylmethoxy]-1-thiomorpholin-4-yl-ethanone], the figures for the MIC in test [1] (setting [5]) and in test [3] (setting [6]) were 2 µg/mL (≈ 3.68 µM) and 8 µg/mL (≈ 14.7 µM), respectively. Also, the figures for the negative-log IC50 (pIC50) in test [2] and in test [4] (Table 2) were 5.80 and 7.72, respectively.
For `CCOc1cc(Cc2cnc(N)nc2N)cc(OCC)c1-c1ccc(COCC(=O)N2CCCCC2)s1` [Example 03-c, 2-[5-[4-(2,4-Diamino-pyrimidin-5-ylmethyl)-2,6-diethoxy-phenyl]-thionhen-2-ylmethoxy]-1-piperidin-1-yl-ethanone] the same measures were 2 µg/mL (≈ 3.8 µM), 8 µg/mL (≈ 15.2 µM), 5.70 and 7.96.
For `CCOc1cc(Cc2cnc(N)nc2N)cc(OCC)c1-c1cc(C)nc(C)c1` [Example 03-d, 5-[4-(2,6-Dimethyl-pyridin-4-yl)-3,5-diethoxy-benzyl]-pyrimidine-2,4-diamine] the same measures were 8 µg/mL (≈ 20.3 µM), 8 µg/mL (≈ 20.3 µM), 5.22 and 6.47.
Regarding `CCOc1cc(Cc2cnc(N)nc2N)cc(OCC)c1-c1ccc(SC)nc1` [Example 03-e, 5-[3,5-Diethoxy-4-(6-methylsulphanyl-pyridin-3-yl)-benzyl]-pyrimidine-2,4-diamine], the MIC in test [1] (setting [5]) stood at 4 µg/mL (≈ 9.72 µM); in test [3] (setting [6]) it was 8 µg/mL (≈ 19.4 µM). For the same molecule, the negative-log IC50 (pIC50) in test [2] is 5.68; in test [4] (Table 2), 7.10.
Regarding `CCOc1cc(Cc2cnc(N)nc2N)cc(OCC)c1-c1ccc(C#N)cc1` [Example 04-a, 4′-(2,4-Diamino-pyrimidin-5-ylmethyl)-2′,6′-diethoxy-biphenyl-4-carbonitrile], the figures for the MIC in test [1] (setting [5]) and in test [3] (setting [6]) were 4 µg/mL (≈ 10.3 µM) and 8 µg/mL (≈ 20.5 µM), respectively. Moreover, the values for the pIC50 in test [2] and in test [4] (Table 2) were 5.57 and 7.09, respectively.
For `CCOc1cc(Cc2cnc(N)nc2N)cc(OCC)c1-c1ccc(CN2CCCC2)c(F)c1` [Example 04-aa, 5-(2,6-Diethoxy-3′-fluoro-4′-pyrrolidin-1-ylmethyl-biphenyl-4-ylmethyl)-pyrimidine-2,4-diamine] the same measures were 8 µg/mL (≈ 17.2 µM), 8 µg/mL (≈ 17.2 µM), 5.74 and 6.48.
